Test results reported in patent US20030232986A1, “Inhibitors of caspases” (Vertex Pharmaceuticals Incorporated, priority 1998, published 2003).

Assays:
Caspase-1 = molecular target: T1, Caspase-1 (Homo sapiens, UniProt P29466); test: Caspase-1 enzyme inhibition (Ki); assay type: biochemical; settings: substrate Suc-YVAD-pNA 80 μM, 37° C., pH 7.5
T1 sequence (P29466 120-297 limits assumed): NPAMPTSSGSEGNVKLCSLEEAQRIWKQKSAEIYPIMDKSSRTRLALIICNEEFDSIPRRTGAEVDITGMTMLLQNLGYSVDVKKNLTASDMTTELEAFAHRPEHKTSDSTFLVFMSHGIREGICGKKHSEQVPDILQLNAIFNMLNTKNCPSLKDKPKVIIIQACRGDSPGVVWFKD
T1 sequence (P29466 317-404 limits assumed): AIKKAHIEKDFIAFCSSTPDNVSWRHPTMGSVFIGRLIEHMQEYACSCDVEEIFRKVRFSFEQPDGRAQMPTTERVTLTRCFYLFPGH
Method in brief: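 Ki obtained by fitting rate versus inhibitor concentration to the Morrison tight-binding equation for competitive inhibitors, with pNA release read at 405 nm at 37 °C. Substrate Suc-YVAD-pNA (80 μM final) added after 15 min enzyme–inhibitor preincubation in Tris pH 7.5 buffer with DTT and CHAPS.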

Caspase-3 = molecular target: T2, Caspase-3 (Homo sapiens, UniProt P42574); test: Caspase-3 enzyme inhibition (Ki); assay type: biochemical; settings: substrate Ac-DEVD-pNA 60 μM, 8% glycerol in buffer, 37° C.
T2 sequence (P42574 29-175 limits assumed): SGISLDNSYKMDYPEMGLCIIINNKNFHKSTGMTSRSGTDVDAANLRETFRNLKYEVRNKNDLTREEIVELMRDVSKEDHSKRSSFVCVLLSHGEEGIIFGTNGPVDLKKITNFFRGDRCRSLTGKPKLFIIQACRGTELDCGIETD
T2 sequence (P42574 176-277 limits assumed): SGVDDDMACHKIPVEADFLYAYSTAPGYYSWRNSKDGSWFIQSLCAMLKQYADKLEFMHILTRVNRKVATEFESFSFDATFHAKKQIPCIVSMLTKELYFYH
Protocol: (§1) Ki values for test compounds with the various caspases were obtained by the method of Margolin et al. (J. Biol. Chem., 272 pp. 7223-7228 (1997)). Assays were performed in 10 mM Tris (Sigma Corp, St Louis Mo.) pH 7.5, 1 mM Dithiothreitol (DTT, Research Organic INC, Cleveland, Ohio) and 0.1% CHAPS (Pierce, Rockford Ill.) at 37° C. For caspase-3, a solution of 8% glycerol was added to the assay buffer to improve enzyme stability. A 65 μL aliquot of the assay buffer and 5 μL aliquot of the appropriate dilutions of inhibitor in DMSO where pipetted into a 96 well plate, treated with 10 μL of caspase, then diluted in assay buffer (0.5-40 nM active protein by active site titration). A control containing DMSO but no compound was included for each determination. The plates were then incubated for 15 minutes at 37° C., before addition of the appropriate substrate (20 μL, final concentration 1-4×KM, final assay volume 100 μL) to initiate the reaction. Reaction rates were measured at 37° C. either by following the time dependant increase in absorbance at 405 nm (for the pNA substrates) or in fluorescence (Ex 390, Em 460) (for the AMC substrates). The rates obtained were plotted against inhibitor concentration and the data fit to the Morrison tight-binding equation for competitive inhibitors (Morrison, J. F., Biochem. Biophys. Acta, 185 pp. 269-286 (1969)). The substrates used for the individual assays were as follows:
Caspase-3 Ac-DEVD-pNA (Bachem, King of Prussia, Pa.) (final concentration in assay, 60 μM)

Caspase-4 = molecular target: T3, Caspase-4 (Homo sapiens, UniProt P49662); test: Caspase-4 enzyme inhibition (Ki); assay type: biochemical; settings: substrate Ac-WEHD-AMC 20 μM, 37° C.
T3 sequence (P49662 81-270 limits assumed): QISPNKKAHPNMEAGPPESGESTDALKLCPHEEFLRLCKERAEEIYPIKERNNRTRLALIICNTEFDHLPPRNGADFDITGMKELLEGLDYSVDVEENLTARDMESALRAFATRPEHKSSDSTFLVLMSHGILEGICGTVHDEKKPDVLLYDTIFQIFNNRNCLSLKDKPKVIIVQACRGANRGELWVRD
T3 sequence (P49662 290-377 limits assumed): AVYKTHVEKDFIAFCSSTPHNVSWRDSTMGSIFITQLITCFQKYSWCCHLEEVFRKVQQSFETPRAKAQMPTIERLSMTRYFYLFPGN
Protocol: as §1, with “The substrates used for the individual assays were as follows:” left out

Caspase-8 = Caspase-8 (Homo sapiens, UniProt Q14790); test: Caspase-8 enzyme inhibition (Ki); assay type: biochemical; settings: substrate Ac-DEVD-pNA 80 μM, 37° C.
Protocol: as §1
Caspase-8 Ac-DEVD-pNA (Bachem, King of Prussia, Pa.) (final concentration in assay 80 μM).

[1] = In vivo rat clearance assay (i.v.); settings: plasma, iv, i.v. via jugular vein
Protocol: Cannulations of the jugular and carotid vessels of rats under anesthesia are performed one day prior to the pharmacokinetic study. M. J. Free, R. A. Jaffee; ‘Cannulation techniques for the collection blood and other bodily fluids’; in: Animal Models; p. 480-495; N. J. Alexander, Ed.; Academic Press; (1978). Drug (10 mg/mL) is administered via the jugular vein in a vehicle usually consisting of: propylene glycol/saline, containing 100 mM sodium bicarbonate in a 1:1 ratio. Animals are dosed with 10-20 mg drug/kg and blood samples are drawn at 0, 2, 5, 7, 10, 15, 20, 30, 60, and 90 minutes from an indwelling carotid catheter. The blood is centrifuged to plasma and stored at −20° C. until analysis. Pharmacokinetic analysis of data is performed by non-linear regression using standard software such as RStrip (MicroMath Software, UT) and/or Pcnonlin (SCI Software, NC) to obtain clearance values.
Rat plasma is extracted with an equal volume of acetonitrile (containing 0.1% TFA). Samples are then centrifuged at approximately 1,000×g and the supernatant analyzed by gradient HPLC. A typical assay procedure is described below.
200 μL of plasma is precipitated with 200 μL of 0.1% trifluoroacetic acid (TFA) in acetonitrile and 10 μL of a 50% aqueous zinc chloride solution, vortexed then centrifuged at ^˜1000×g and the supernatant collected and analyzed by HPLC.
A standard curve is run at 20, 10, 5, 2 and 1 μg/mL concentrations.

Sequence of Caspase-8 (Q14790 217-374 limits assumed): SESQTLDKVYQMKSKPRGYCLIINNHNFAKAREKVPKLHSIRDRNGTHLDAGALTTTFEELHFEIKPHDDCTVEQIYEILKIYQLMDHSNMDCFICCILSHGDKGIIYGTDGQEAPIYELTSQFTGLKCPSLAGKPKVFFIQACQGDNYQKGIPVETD
Sequence of Caspase-8 (Q14790 385-479 limits assumed): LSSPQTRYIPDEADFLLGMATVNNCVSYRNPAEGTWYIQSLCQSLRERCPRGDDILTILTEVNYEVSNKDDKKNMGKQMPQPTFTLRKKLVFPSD

With `C[C@H](NC(=O)c1ccc(N)c(Cl)c1)C(=O)N1CCC[C@H]1C(=O)N[C@H](C=O)CC(=O)O` [Example 122b, 3-({-[2-(4-Amino-3-chloro-benzoylamino)-propionyl]-pyrrolidine-2-carbonyl}-amino)-4-oxo-butyric acid] as the compound, how does the Ki (Caspase-1) read?
The Ki was < 10 nM.

And the Ki (Caspase-3)?
Its Ki is > 1000 nM.

What about the Ki (Caspase-4) of the same compound?
The Ki was < 10 nM.

What about the Ki (Caspase-8) of the same compound?
Its Ki is 10 to 1000 nM.

And the clearance [1]?
The clearance was 50 to 80 mL/min/kg.

What does the source list for `COc1c(C)cc(C(=O)N[C@@H](C)C(=O)N2CCC[C@H]2C(=O)N[C@H](C=O)CC(=O)O)cc1C` [Example 122d, 3-({1-[2-(4-Methoxy-3,5-dimethyl-benzoylamino)-propionyl]-pyrrolidine-2-carbonyl}-amino)-4-oxo-butyric acid]?
Ki (Caspase-1): < 10 nM; Ki (Caspase-3): > 1000 nM; Ki (Caspase-4): < 10 nM; Ki (Caspase-8): > 1000 nM; clearance [1]: 50 to 80 mL/min/kg
